According to patent publication US20100179203A1, “NOVEL PYRAZOLE DERIVATIVES USEFUL AS POTASSIUM CHANNEL MODULATORS” (priority 2007, published 2010):
pEC50: −log10 of the molar value.

Experiments:
BK channels = molecular target: T1, BK channels (Homo sapiens, UniProt Q12791); assay: BK channel opening activity, two-electrode voltage clamp in Xenopus laevis oocytes; assay type: cell-based
T1 construct: expressed in transfected cells; host or cells: Xenopus laevis oocytes
Description: In this example the BK channel opening activity of Compound 9 (FIGS. 1A and 1B) is determined using BK channels heterologously expressed in Xenopus laevis oocytes.
The electrical current through the BK channel was measured using conventional two-electrode voltage clamp. BK currents were activated by repeating ramp protocols. In brief, the membrane potential was continuously changed from −120 mV to +120 mV within a 2 s period. The threshold for BK activation is approximately +30 mV under control conditions. Compounds were applied for 100 s during which the ramp protocol was repeated 10 times with 10 s intervals. In between the ramp protocols the membrane potential was clamped at −80 mV. The first three compound applications were control blanks where the current level is allowed to stabilize.
In order to evaluate the ability of the compounds to shift the BK activation curve towards lower membrane potentials, the BK current was transformed into conductance by using Ohm's law […], where g is the conductance, I is the current, Ememb is the membrane potential and Erev is the reversal potential. The extracellular solution for these experiments contained 2.5 mM K+ and the intracellular K+ concentration of an oocyte was estimated to be 100 mM. Under those conditions, Nernst equation predicts a reversal potential of Erev=−93.2 mV. The control conductance level at a membrane potential of +100 mV was calculated, and the compound effect was evaluated as the potential difference, ΔV, to the membrane potential at which the same conductance level was obtained in the presence of compound.
The concentration response curve for this potential difference was fitted to the sigmoidal logistic equation: ΔV=ΔVmax/(1+(EC50/[compound])^n), where ΔVmax represents the maximal left shift of the BK activation curve, EC50 is the concentration causing a half maximal response, and n is the slope coefficient.

T1 sequence (Q12791 whole entry): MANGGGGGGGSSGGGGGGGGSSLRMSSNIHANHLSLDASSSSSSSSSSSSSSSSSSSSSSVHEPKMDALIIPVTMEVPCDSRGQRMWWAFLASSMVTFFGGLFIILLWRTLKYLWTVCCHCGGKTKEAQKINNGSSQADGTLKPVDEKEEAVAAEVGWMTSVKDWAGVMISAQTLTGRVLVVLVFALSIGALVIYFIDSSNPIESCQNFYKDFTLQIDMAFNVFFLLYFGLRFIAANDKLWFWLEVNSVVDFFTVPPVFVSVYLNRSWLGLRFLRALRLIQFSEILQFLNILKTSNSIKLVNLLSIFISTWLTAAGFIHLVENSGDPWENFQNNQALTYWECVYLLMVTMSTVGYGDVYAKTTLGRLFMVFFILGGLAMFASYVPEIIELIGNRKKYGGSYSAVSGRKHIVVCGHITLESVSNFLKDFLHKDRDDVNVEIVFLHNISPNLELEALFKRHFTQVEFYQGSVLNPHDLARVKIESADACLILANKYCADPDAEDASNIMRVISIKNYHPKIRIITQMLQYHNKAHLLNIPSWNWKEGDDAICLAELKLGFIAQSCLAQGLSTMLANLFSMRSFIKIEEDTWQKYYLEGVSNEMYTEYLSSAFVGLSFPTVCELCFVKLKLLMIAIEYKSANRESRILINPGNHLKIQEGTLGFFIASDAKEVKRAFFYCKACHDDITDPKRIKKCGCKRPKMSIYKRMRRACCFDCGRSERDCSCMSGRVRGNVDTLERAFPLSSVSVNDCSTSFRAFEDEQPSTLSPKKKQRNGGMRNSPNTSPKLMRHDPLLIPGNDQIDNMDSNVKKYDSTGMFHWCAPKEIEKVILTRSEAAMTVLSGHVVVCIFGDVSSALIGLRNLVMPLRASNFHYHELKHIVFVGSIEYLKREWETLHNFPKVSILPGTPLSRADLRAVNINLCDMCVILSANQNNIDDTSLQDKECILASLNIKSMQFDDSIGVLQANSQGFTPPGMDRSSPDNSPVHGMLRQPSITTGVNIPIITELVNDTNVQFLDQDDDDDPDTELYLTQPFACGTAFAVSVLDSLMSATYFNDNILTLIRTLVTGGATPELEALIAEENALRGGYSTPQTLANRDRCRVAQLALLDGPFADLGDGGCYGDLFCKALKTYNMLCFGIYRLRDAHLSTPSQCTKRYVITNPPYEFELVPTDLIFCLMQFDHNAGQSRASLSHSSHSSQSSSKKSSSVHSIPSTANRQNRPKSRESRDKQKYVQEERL

Row | melting point [°C] | Structure (SMILES) | further results
1 | 240.2 to 241.3 | COc1ccc(-n2cc(/C=C/C(=O)O)c(-c3ccc(Cl)c(F)c3)n2)cc1Cl [Compound 3, (E)-3-[3-(4-Chloro-3-fluoro-phenyl)-1-(3-chloro-4-methoxy-phenyl)-1H-pyrazol-4-yl]-acrylic acid] | 
2 | 128.4 to 130 | COc1ccc(-n2cc(/C=C/c3nnn[nH]3)c(-c3ccc(Cl)c(F)c3)n2)cc1Cl [Compound 5, 5-{(E)-2-[3-(4-Chloro-3-fluorophenyl)-1-(3-chloro-4-methoxy-phenyl)-1H-pyrazol-4-yl]-vinyl}-1H-tetrazole] | 
3 | 269.3 to 270.5 | COc1ccc(-n2cc(/C=C/C(=O)NS(C)(=O)=O)c(-c3ccc(Cl)c(F)c3)n2)cc1Cl [Compound 6, N-{(E)-3-[3-(4-Chloro-3-fluoro-phenyl)-1-(3-chloro-4-methoxy-phenyl)-1H-pyrazol-4-yl]-acryloyl}-methanesulfonamide] | 
4 |  | Clc1ccc(-c2nn(-c3ccc(Br)cc3)cc2CCc2nnn[nH]2)cc1 [Compound 9, 5-{2-[1-(4-Bromo-phenyl)-3-(4-chloro-phenyl)-1H-pyrazol-4-yl]-ethyl}-1H-tetrazole] | pEC50 (BK channels; BK channels heterologously expressed in Xenopus laevis oocytes, ramp -120 to +120 mV, 0.01-31.6 μM, fit of ΔV vs concentration, read-out: EC50 for the left-shift of the BK activation curve): 5.85; ΔVmax, maximal left shift of the BK activation curve (BK channels; BK channels heterologously expressed in Xenopus laevis oocytes, ΔV referred to control conductance at +100 mV, 0.01-31.6 μM): −96 mV; BK current level at depolarizing potentials (BK channels; increasing concentrations (0.01-31.6 μM) applied, Xenopus laevis oocytes): marked increase in the current level
5 | 282.8 to 284.2 | COc1ccc(-n2cc(/C=C(\C#N)C(=O)O)c(-c3ccc(Cl)c(F)c3)n2)cc1Cl [Compound 14, (E)-3-[3-(4-Chloro-3-fluoro-phenyl)-1-(3-chloro-4-methoxy-phenyl)-1H-pyrazol-4-yl]-2-cyano-acrylic acid] | 
6 | 200 to 201 | O=c1[nH]c(Cc2cn(-c3cc(C(F)(F)F)cc(C(F)(F)F)c3)nc2-c2cccc(Cl)c2)no1 [Compound 17, 3-[1-(3,5-Bis-trifluoromethyl-phenyl)-3-(3-chloro-phenyl)-1H-pyrazol-4-ylmethyl]-4H-[1,2,4]oxadiazol-5-one] | 
7 | 216.8 to 218.2 | COc1ccc(-n2cc(CC(=O)NS(C)(=O)=O)c(-c3ccc(Cl)c(F)c3)n2)cc1Cl [Compound 18, N-{2-[3-(4-Chloro-3-fluorophenyl)-1-(3-chloro-4-methoxy-phenyl)-1H-pyrazol-4-yl]-acetyl}-methanesulfonamide] | 
